Source: patent US11090319B2, “Therapeutic uses of pharmaceutical compositions comprising cyclic boronic acid ester derivatives” (Melinta Subsidiary Corp., priority 2010, dated 2021)

What was measured:
[1] = test system: KP1011 Klebsiella pneumoniae SHV-5; experiment: microbe, parasite or virus in culture; format: cell-based; settings: for Ceftazidime MIC with cyclic boronic acid ester derivative: derivative at 10 μg/mL, KP1011 SHV-5
Protocol: Next, ceftazidime potentiation activity of several cyclic boronic acid ester derivatives was tested using a larger panel of strains expressing β-lactamase hydrolyzing enzymes. Ceftazidime MICs were determined alone and in the presence of fixed concentrations of various cyclic boronic acid ester derivatives.

SHV-18, lysate of KP1012 = SHV-18, lysate of KP1012 (Klebsiella pneumoniae, UniProt P0AD64, E235K/G234A/R39S); experiment: Inhibition of ceftazidime hydrolysis by bacterial lysate
SHV-18, lysate of KP1012, sequence (P0AD64 22-286 R39S/G234A/E235K): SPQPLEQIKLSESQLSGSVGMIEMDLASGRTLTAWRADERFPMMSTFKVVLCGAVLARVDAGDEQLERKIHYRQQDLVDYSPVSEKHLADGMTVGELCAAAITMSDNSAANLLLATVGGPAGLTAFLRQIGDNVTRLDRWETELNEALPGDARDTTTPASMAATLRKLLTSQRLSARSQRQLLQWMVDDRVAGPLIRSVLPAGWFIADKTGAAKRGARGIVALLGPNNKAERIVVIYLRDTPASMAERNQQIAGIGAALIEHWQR

[2] = test system: KP1008 Klebsiella pneumoniae KPC-2; experiment: Checkerboard assay, biapenem potentiation; settings: Biapenem MIC 8-fold; KP1008 KPC-2 class A
[3] = target: various β-lactamases (bacterial lysates) (Salmonella typhimurium, UniProt P0A1V8); experiment: biochemical; format: biochemical; settings: AZT IC50 KPX1001 OXA-2
various β-lactamases (bacterial lysates) (Salmonella typhimurium, UniProt P0A1V8), sequence (P0A1V8 22-275): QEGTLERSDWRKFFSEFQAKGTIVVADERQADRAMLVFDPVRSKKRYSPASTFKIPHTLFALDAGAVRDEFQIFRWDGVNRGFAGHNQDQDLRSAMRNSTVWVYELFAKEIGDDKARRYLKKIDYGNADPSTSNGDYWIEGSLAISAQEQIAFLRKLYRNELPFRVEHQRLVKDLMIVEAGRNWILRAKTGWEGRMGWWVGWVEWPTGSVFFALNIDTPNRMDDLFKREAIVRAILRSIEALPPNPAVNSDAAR

[4] = target: various β-lactamases (bacterial lysates) (Escherichia coli, UniProt A0A649V088); experiment: biochemical; format: biochemical; settings: read-out: AZT IC50 KP1005 CTX-M-14
various β-lactamases (bacterial lysates) (Escherichia coli, UniProt A0A649V088), sequence (A0A649V088 29-291): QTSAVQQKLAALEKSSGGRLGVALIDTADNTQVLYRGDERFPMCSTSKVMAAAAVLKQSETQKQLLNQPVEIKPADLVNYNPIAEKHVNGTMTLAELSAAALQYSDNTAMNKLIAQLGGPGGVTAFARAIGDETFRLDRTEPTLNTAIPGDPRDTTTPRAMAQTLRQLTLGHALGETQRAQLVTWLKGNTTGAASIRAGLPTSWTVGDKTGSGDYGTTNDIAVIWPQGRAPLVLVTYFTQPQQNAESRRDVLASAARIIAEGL

[5] = target: various β-lactamases (bacterial lysates) (Pseudomonas aeruginosa, UniProt P14489); experiment: biochemical; format: biochemical; settings: AZT IC50 KP1007 OXA-10
various β-lactamases (bacterial lysates) (Pseudomonas aeruginosa, UniProt P14489), sequence (P14489 20-266): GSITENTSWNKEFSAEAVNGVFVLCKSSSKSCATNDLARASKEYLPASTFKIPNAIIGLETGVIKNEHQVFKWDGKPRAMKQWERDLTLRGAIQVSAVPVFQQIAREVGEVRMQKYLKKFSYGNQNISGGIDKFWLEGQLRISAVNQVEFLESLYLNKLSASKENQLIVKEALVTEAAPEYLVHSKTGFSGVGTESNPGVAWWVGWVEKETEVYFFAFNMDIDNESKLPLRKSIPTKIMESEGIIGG

KPC-3, lysate of EC1007 = KPC-3, lysate of EC1007 (Klebsiella pneumoniae, UniProt Q9F663, H272Y); experiment: Inhibition of ceftazidime hydrolysis by bacterial lysate
KPC-3, lysate of EC1007, sequence (Q9F663 whole entry H272Y, looked up): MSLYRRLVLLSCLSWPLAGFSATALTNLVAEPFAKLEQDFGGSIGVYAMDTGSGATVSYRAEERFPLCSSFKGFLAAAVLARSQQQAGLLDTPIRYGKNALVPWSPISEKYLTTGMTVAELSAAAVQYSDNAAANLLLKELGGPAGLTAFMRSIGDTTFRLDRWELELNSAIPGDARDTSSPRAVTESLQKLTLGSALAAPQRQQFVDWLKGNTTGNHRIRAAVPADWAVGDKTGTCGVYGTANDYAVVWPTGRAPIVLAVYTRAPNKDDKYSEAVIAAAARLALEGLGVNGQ

[6] = test system: EC1007 Escherichia coli KPC-3; experiment: Checkerboard assay, biapenem potentiation; settings: Biapenem MIC 8-fold; EC1007 KPC-3 class A

| SMILES | MIC ([1]; Klebsiella pneumoniae, read-out: Ceftazidime MIC Alone) [µg/mL] | IC50 (SHV-18, lysate of KP1012) [µM] | MPC8 [2] | IC50 [3] [µM] | IC50 [4] [µM] | IC50 [5] [µM] | Ceftazidime MIC with cyclic boronic acid ester derivative [1] | IC50 (KPC-3, lysate of EC1007) [µM] | MPC8 [6] |
| --- | --- | --- | --- | --- | --- | --- | --- | --- | --- |
| CC(C)(O/N=C(\C(=O)N[C@@H]1C(=O)N2C(C(=O)[O-])=C(C[n+]3ccccc3)CS[C@H]12)c1csc(N)n1)C(=O)O [Ceftazidime, reference compound] | 1 to 8 |  |  |  |  |  |  |  |  |
| CC(=O)N[C@H]1CCC(CC(=O)O)OB1O (stereo partly drawn) [Compound 3, 2-((3R)-3-acetamido-2-hydroxy-1,2-oxaborinan-6-yl)acetic acid] |  | > 4.65 | X (MPC8 of less than 0.16 μg/mL) | > 9.3 | < 2.33 | > 9.3 | X (MIC of 1 μg/mL or less) |  |  |
| O=C(O)CC1CC[C@H](NC(=O)C2CC2)B(O)O1 (stereo partly drawn) [Compound 4, 2-((3R)-3-(cyclopropanecarboxamido)-2-hydroxy-1,2-oxaborinan-6-yl)acetic acid] |  | > 4.15 | X (MPC8 of less than 0.16 μg/mL) | > 8.3 | < 2.07 | > 8.3 | X (MIC of 1 μg/mL or less) | < 0.415 |  |
| O=C(O)C[C@@H]1CC[C@H](NC(=O)Cc2cccs2)B(O)O1 [Compound 5, 2-((3R,6S)-2-hydroxy-3-(2-(thiophen-2-yl)acetamido)-1,2-oxaborinan-6-yl)acetic acid] |  | 0.337 to 3.37 |  | < 1.68 | < 1.68 | > 6.73 |  |  | X (MPC8 of less than 0.16 μg/mL) |
| O=C(O)C[C@@H]1CC[C@H](NC(=O)Cc2ccccc2)B(O)O1 [Compound 6, 2-((3R,6S)-2-hydroxy-3-(2-phenylacetamido)-1,2-oxaborinan-6-yl)acetic acid] |  | 0.344 to 3.44 |  | 1.72 to 6.87 | < 1.72 | > 6.87 | X (MIC of 1 μg/mL or less) |  | X (MPC8 of less than 0.16 μg/mL) |
| Cl.N[C@H]1CCC(CC(=O)O)OB1O (stereo partly drawn) [Compound 7, 2-((3R)-3-amino-2-hydroxy-1,2-oxaborinan-6-yl)acetic acid hydrochloride] |  | > 4.77 |  |  |  |  |  | > 4.77 |  |
